# Experimental data reported in US8937072B2, “Substituted cyanoaniline compounds, preparation and use thereof” (Sinochem Corporation, priority 2011, dated 2015).
# Read-outs that look alike come from different tables or passages of the source.
# Columns and labels:
# rice blast = assay: microbe, parasite or virus in culture; type: cell-based; conditions: Pyricularia oryzae; for inhibition at 0.03 µg/mL: read-out: the inhibition rate against rice blast (%) 0.03 mg/L; for inhibition at 0.1 µg/mL: read-out: the inhibition rate against rice blast (%) 0.1 mg/L; for inhibition at 0.3 µg/mL: read-out: the inhibition rate against rice blast (%) 0.3 mg/L
# cucumber gray mold = assay: Activity in vitro (96-well, High Through Put): inhibition rate against cucumber gray mold; type: cell-based; conditions: for inhibition at 0.3 µg/mL: 0.3 mg/L; for inhibition at 0.9 µg/mL: 0.9 mg/L; for inhibition at 2.8 µg/mL: 2.8 mg/L; for inhibition at 25 µg/mL: dose 25 mg/L
# Outline: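 Compound in acetone, methanol or DMF was combined with pathogen suspension under sterile conditions and held in a constant-temperature box. After 24 hours germination or growth was scored by eye against an untreated control to give the inhibition rate.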
# cucumber downy mildew = assay: Protectant activity in vivo (whole plant) against cucumber downy mildew; conditions: Cucumis sativus, 168 h; for pest or weed control at 12.5 µg/mL: 12.5 mg/L; for pest or weed control at 400 µg/mL: dose 400 mg/L
# Outline: (§1)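 Compound stock in organic solvent (≤5% v/v) diluted in water with 0.1% Tween-80 and sprayed onto whole host plants. Fungal inoculation 24 h later; humidity chamber then greenhouse as the pathogen requires. Activity rated visually, usually after 7 days.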
# corn rust = assay: Protectant activity in vivo (whole plant) against corn rust; conditions: Zea mays, 168 h; for pest or weed control at 6.25 µg/mL: 6.25 mg/L; for pest or weed control at 25 µg/mL: 25 mg/L; for pest or weed control at 100 µg/mL: 100 mg/L
# Outline: as §1
# wheat powdery mildew = assay: Protectant activity in vivo (whole plant) against wheat powdery mildew; conditions: Triticum aestivum, 168 h; for pest or weed control at 400 µg/mL: dose 400 mg/L
# Description: The method is as followed: The whole plant is used in this test. The compound is dissolved in a proper solvent to get mother solution. The proper solvent is selected from acetone, methanol, DMF and so on according to their dissolving capability to the sample. The volume rate of solvent and testing solution (v/v) is equal to or less than 5%. The mother solution is diluted with water containing 0.1% tween-80 to get the testing solution whose concentration is designed. The testing solution is sprayed to the host plant by a special plant sprayer. The plant is inoculated with fungus after 24 hours. According to the infecting characteristic of fungus, the plant is stored in a humidity chamber and then transferred into greenhouse after infection is finished. And the other plants are placed in greenhouse directly. The activity of compound is obtained by eyeballing after 7 days in common.
# plasmopora viticola = conditions: at high dose; cited from earlier work
# blast of rice = conditions: at 500 ppm; cited from earlier work
# canker of citrus fruit = conditions: at 500 ppm; cited from earlier work
# pear scab = conditions: in vivo; cited from earlier work
# [1] = read-out: the inhibition rate against cucumber gray mold (%)
# [2] = 8.3 mg/L, read-out: the inhibition rate against cucumber gray mold (%)
# [3] = 25 mg/L, read-out: the protectant activity (%) against cucumber downy mildew
# [4] = 50 mg/L, read-out: the protectant activity (%) against cucumber downy mildew
# [5] = 100 mg/L, read-out: the protectant activity (%) against cucumber downy mildew
# [6] = dose 25 mg/L, read-out: protectant activity against cucumber downy mildew in vivo
# [7] = dose 50 mg/L, read-out: protectant activity against cucumber downy mildew in vivo
# [8] = dose 100 mg/L, read-out: protectant activity against cucumber downy mildew in vivo
# [9] = 400 mg/L, read-out: the protectant activity (%) against corn rust
# [10] = dose 400 mg/L, read-out: protectant activity against corn rust in vivo
# [11] = in vitro, dose 8.3 mg/L, read-out: inhibition rate against cucumber gray mold
Structure (SMILES),inhibition at 0.03 µg/mL (rice blast) [%],inhibition at 0.1 µg/mL (rice blast) [%],inhibition at 0.3 µg/mL (rice blast) [%],inhibition at 0.3 µg/mL (cucumber gray mold) [%],inhibition at 0.9 µg/mL (cucumber gray mold; [1]) [%],inhibition at 2.8 µg/mL (cucumber gray mold; [1]) [%],inhibition at 8.3 µg/mL (cucumber gray mold; [2]) [%],inhibition at 25 µg/mL (cucumber gray mold; in vitro) [%],pest or weed control at 12.5 µg/mL (cucumber downy mildew) [%],pest or weed control at 25 µg/mL (cucumber downy mildew; [3]) [%],pest or weed control at 50 µg/mL (cucumber downy mildew; [4]) [%],pest or weed control at 100 µg/mL (cucumber downy mildew; [5]) [%],pest or weed control at 100 µg/mL (cucumber downy mildew; [8]) [%],pest or weed control at 6.25 µg/mL (corn rust) [%],pest or weed control at 25 µg/mL (corn rust) [%],pest or weed control at 100 µg/mL (corn rust) [%],pest or weed control at 400 µg/mL (corn rust; [9]) [%],pest or weed control at 400 µg/mL (corn rust; [10]) [%],pest or weed control at 400 µg/mL (wheat powdery mildew) [%],activity on relevant diseases such as plasmopora viticola (plasmopora viticola),further results
N#Cc1c(Cl)c(Cl)c(C#N)c(Nc2ccccc2)c1Cl [KC15],0,0,0,0,0,0,0,0,0,0,10,20,20,0,0,0,0,0,0,some activity,pest or weed control at 25 µg/mL (cucumber downy mildew; [6]): 0%; pest or weed control at 50 µg/mL (cucumber downy mildew; [7]): 10%
N#Cc1c(Cl)c(Cl)c(Nc2ccccc2)c(C#N)c1Cl [KC1],0,0,0,0,0,0,0,0,0,0,0,0,–,0,0,0,0,0,0,some activity,inhibition at 25 µg/mL (rice blast; read-out: inhibition rate against rice blast): 0%; pest or weed control at 400 µg/mL (cucumber downy mildew): 0%
N#Cc1c(F)c(F)c(Nc2ccccc2)c(C#N)c1F [KC7],0,0,0,0,0,0,0,–,0,0,10,20,20,–,–,–,–,–,0,–,inhibition at 8.3 µg/mL (cucumber gray mold; [11]): 0%; pest or weed control at 25 µg/mL (cucumber downy mildew; [6]): 0%; pest or weed control at 50 µg/mL (cucumber downy mildew; [7]): 10%; bacteriostatic diameter against blast of rice (blast of rice): 22.5 mm; bacteriostatic diameter against canker of citrus fruit (canker of citrus fruit): 13.8 mm; control against pear scab (pear scab): 100%
N#Cc1c(Cl)c(Cl)c(Nc2ccccc2)c(Cl)c1C#N [KC14],0,0,0,0,0,0,0,0,0,0,0,0,0,0,0,0,0,0,30,some activity,pest or weed control at 100 µg/mL (wheat powdery mildew; dose 100 mg/L): 0%
N#Cc1c(F)c(F)c(Nc2ccc(Cl)cc2)c(C#N)c1F [KC8],0,0,0,0,0,0,0,–,0,0,0,0,–,0,0,0,0,0,0,–,inhibition at 8.3 µg/mL (cucumber gray mold; [11]): 0%; pest or weed control at 400 µg/mL (cucumber downy mildew): 0%; bacteriostatic diameter against blast of rice (blast of rice): 10.2 mm; bacteriostatic diameter against canker of citrus fruit (canker of citrus fruit): 0 mm; control against pear scab (pear scab): 90%
